Data as given in ChEMBL document CHEMBL3351936, “Novel 25-hydroxyprotopanaxadiol derivatives incorporating chloroacetyl chloride and their anti-tumor evaluation” (Bioorg Med Chem Lett, 2014).

Assays:
[1] = Antiproliferative activity against human BGC823 cells assessed as cell-growth inhibition after 48 hrs by MTT assay; assay type: functional, cell-based; details: BGC-823, 48 h
HeLa = assay: Antiproliferative activity against human HeLa cells assessed as cell-growth inhibition after 48 hrs by MTT assay; assay type: functional, cell-based
MCF7 = assay: Antiproliferative activity against human MCF7 cells assessed as cell-growth inhibition after 48 hrs by MTT assay; assay type: functional, cell-based; details: MCF7, 48 h
[2] = Antiproliferative activity against human U87 cells assessed as cell-growth inhibition after 48 hrs by MTT assay; assay type: functional, cell-based, U-87MG ATCC; details: U-87 MG
[3] = Antiproliferative activity against human HCT116 cells assessed as cell-growth inhibition after 48 hrs by MTT assay; assay type: functional, cell-based; details: HCT-116, 48 h
LoVo = assay: Antiproliferative activity against human LoVo cells assessed as cell-growth inhibition after 48 hrs by MTT assay; assay type: functional, cell-based

Compound	IC50 [1] [µM]	IC50 (HeLa) [µM]	IC50 (MCF7) [µM]	IC50 [2] [µM]	IC50 [3] [µM]	IC50 (LoVo) [µM]
CC(C)(O)CCC[C@@](C)(O)[C@H]1CC[C@]2(C)[C@@H]1[C@H](O)C[C@@H]1[C@@]3(C)CC[C@H](O)C(C)(C)[C@@H]3CC[C@]12C	44.2	48.6	49.6	27.5	33.3	46.7
CC(=O)O[C@H]1CC[C@]2(C)[C@H]3C[C@@H](O)[C@@H]4[C@@H]([C@](C)(O)CCCC(C)(C)O)CC[C@@]4(C)[C@]3(C)CC[C@H]2C1(C)C	34.6	30.2	19.5	32.6	20.5	44.9
CC(=O)O[C@@H]1C[C@@H]2[C@@]3(C)CC[C@H](O)C(C)(C)[C@@H]3CC[C@@]2(C)[C@]2(C)CC[C@H]([C@](C)(O)CCCC(C)(C)O)[C@@H]12	28.7	39.9	15.6	34.4	18.9	36.7
CC(=O)O[C@H]1CC[C@]2(C)[C@H]3C[C@@H](OC(C)=O)[C@@H]4[C@@H]([C@](C)(O)CCCC(C)(C)O)CC[C@@]4(C)[C@]3(C)CC[C@H]2C1(C)C	42.3	28.9	23.5	41.2	17.1	35.6
C=C(CCCC(C)(C)O)[C@H]1CC[C@]2(C)[C@@H]1[C@H](O)C[C@@H]1[C@@]3(C)CC[C@H](OC(=O)CCl)C(C)(C)[C@@H]3CC[C@]12C	44.4	60.9	18.9	14.1	12.1	19.1
C=C(CCCC(C)(C)O)[C@H]1CC[C@]2(C)[C@@H]1[C@H](OC(=O)CCl)C[C@@H]1[C@@]3(C)CC[C@H](O)C(C)(C)[C@@H]3CC[C@]12C	45.2	56.6	9.8	24.6	22.5	23.5
C=C(CCCC(C)(C)OC(=O)CCl)[C@H]1CC[C@]2(C)[C@@H]1[C@H](O)C[C@@H]1[C@@]3(C)CC[C@H](O)C(C)(C)[C@@H]3CC[C@]12C	27.1	39.7	10.8	10.1	42.8	40
C=C(CCCC(C)(C)O)[C@H]1CC[C@]2(C)[C@@H]1[C@H](OC(=O)CCl)C[C@@H]1[C@@]3(C)CC[C@H](OC(=O)CCl)C(C)(C)[C@@H]3CC[C@]12C	8.3	21.7	1.7	22.8	1.6	2.1
C/C(=C/CCC(C)(C)O)[C@H]1CC[C@]2(C)[C@@H]1[C@H](OC(=O)CCl)C[C@@H]1[C@@]3(C)CC[C@H](O)C(C)(C)[C@@H]3CC[C@]12C	42.3	44.4	37.8	34.6	8.6	31
C/C(=C/CCC(C)(C)OC(=O)CCl)[C@H]1CC[C@]2(C)[C@@H]1[C@H](O)C[C@@H]1[C@@]3(C)CC[C@H](OC(=O)CCl)C(C)(C)[C@@H]3CC[C@]12C	24.2	23.4	7.9	21.3	1.2	1.3
C/C(=C/CCC(C)(C)O)[C@H]1CC[C@]2(C)[C@@H]1[C@H](OC(=O)CCl)C[C@@H]1[C@@]3(C)CC[C@H](OC(=O)CCl)C(C)(C)[C@@H]3CC[C@]12C	7.1	37.6	1.6	16.6	2.6	1.7
CC(C)(O)CCC[C@@](C)(O)[C@H]1CC[C@]2(C)[C@@H]1[C@H](O)C[C@@H]1[C@@]3(C)CC[C@H](OC(=O)CCl)C(C)(C)[C@@H]3CC[C@]12C	63.6	68.1	84.3	31.9	20.4	45.8
CC(C)(O)CCC[C@@](C)(O)[C@H]1CC[C@]2(C)[C@@H]1[C@H](OC(=O)CCl)C[C@@H]1[C@@]3(C)CC[C@H](O)C(C)(C)[C@@H]3CC[C@]12C	30.9	37.2	26.2	7.3	32.1	31.1
CC(C)(O)CCC[C@@](C)(O)[C@H]1CC[C@]2(C)[C@@H]1[C@H](OC(=O)CCl)C[C@@H]1[C@@]3(C)CC[C@H](OC(=O)CCl)C(C)(C)[C@@H]3CC[C@]12C	61.8	68.9	38.1	88.1	45.6	41
CC(C)(CCC[C@@](C)(O)[C@H]1CC[C@]2(C)[C@@H]1[C@H](O)C[C@@H]1[C@@]3(C)CC[C@H](OC(=O)CCl)C(C)(C)[C@@H]3CC[C@]12C)OC(=O)CCl	6.9	27.1	3.7	40.1	38.2	58.1
CC(C)(CCC[C@@](C)(OC(=O)CCl)[C@H]1CC[C@]2(C)[C@@H]1[C@H](O)C[C@@H]1[C@@]3(C)CC[C@H](O)C(C)(C)[C@@H]3CC[C@]12C)OC(=O)CCl	32.4	52.6	12.1	19.2	56.1	61.2
O=c1[nH]cc(F)c(=O)[nH]1 [FLUOROURACIL]	35.6	18.1		38.2	36.2	12.7
